The test addresses T1, Gag-Pol polyprotein [1148-1435] (Human immunodeficiency virus 1, UniProt P04585).
T1 construct: 1148-1435
Nature of the test: HIV-1 Integrase Assay. Here is the method: HIV-1 integrase inhibitory activity of compounds were determined using strand transferase inhibitory assay.

In general, IC50 refers to the concentration that inhibits the measured activity by half. Take `O=C(O)C(=O)CC(=O)c1cn(Cc2ccc(F)cc2)c2ccc(F)cc2c1=O` [(2Z)-4-{6-fluoro-1-[(4-fluorophenyl)methyl]-4-oxoquinolin-3-yl}-2-hydroxy-4-oxobut-2-enoic acid (Compound 9)]: half-maximal inhibition (IC50) required 2.3 µM.

`O=C(NCc1cc2ccccc2s1)c1nc(-c2cccs2)nc(O)c1O` [N-(1-benzothiophen-2-ylmethyl)-5,6-dihydroxy-2-(thiophen-2-yl)pyrimidine-4-carboxamide (Compound 12)] gave a concentration for half-maximal inhibition (IC50) of 0.01 µM.

`COC(=O)c1ccc(CC(=O)c2cc(C=O)c(O)cc2C)c(C)c1O` [methyl 4-[2-(5-formyl-4-hydroxy-2-methylphenyl)-2-oxoethyl]-2-hydroxy-3-methylbenzoate (Compound 5)] yielded an IC50 of 123 µM.

`O=C(NNC(=O)c1cccc(O)c1O)c1ccccc1O` [2,3-dihydroxy-N'-(2-hydroxybenzoyl)benzohydrazide (Compound 17)] gave an IC50 of 0.5 µM.

The compound `O=C(NCc1ccc(Cl)c(Cl)c1)c1nc(-c2cccs2)nc(O)c1O` [N-[(3,4-dichlorophenyl)methyl]-5,6-dihydroxy-2-(thiophen-2-yl)pyrimidine-4-carboxamide (Compound 14)] displayed an IC50 of 0.01 µM.

`O=C1c2ccccc2C(C2CCCCC2)C(=O)N1O` (centres undefined) [4-cyclohexyl-2-hydroxy-4H-isoquinoline-1,3-dione (Compound 3)] yielded an IC50 of 1.35 µM.

In turn, `C=c1[nH]n(C(=O)c2ccc(Cl)cc2)c(=O)c1=Cc1ccc(O)cc1` had an IC50 of 293 µM.

For `Cn1c(=O)c(C(=O)O)c(O)c2cc(-c3ccc(F)cc3)ccc21` [6-(4-fluorophenyl)-4-hydroxy-1-methyl-2-oxoquinoline-3-carboxylic acid (Compound 6)], the IC50 was found to be 23 µM.

In turn, `COC(=O)c1ccc2cc(CCc3ccc(O)c(O)c3)oc2c1` [methyl 2-[2-(3,4-dihydroxyphenyl)ethyl]-1-benzofuran-6-carboxylate (Compound 18)] registered an IC50 of 43.8 µM.

The compound `COc1cc2c(cc1OC)C(=O)N1CSCC1C(=O)S2` (centres undefined) [12,13-dimethoxy-5,9-dithia-3-azatricyclo[8.4.0.0 ,⁷]tetradeca-1(14),10,12-triene-2,8-dione (Compound 8)] displayed an IC50 of 331 µM.

For the compound `O=C(O)C(=O)CC(=O)c1cc(OCc2ccccc2)cc(OCc2ccccc2)c1`, the IC50 turned out to be 0.059 µM.

For the compound `O=C1/C(=C\c2cccc(O)c2)C=NN1C(=O)c1ccccc1O` [(4Z)-2-(2-hydroxybenzoyl)-4-[(3-hydroxyphenyl)methylidene]pyrazol-3-one (Compound 11)], the IC50 was 7.4 µM.

Compound `O=C(NO)c1ccc2c(c1)CCN2Cc1ccc(F)cc1F` [1-[(2,4-difluorophenyl)methyl]-N-hydroxy-2,3-dihydroindole-5-carboxamide (Compound 1)] registered an IC50 of 84 µM.

On to `O=C1C(=O)c2ccccc2C(=O)C1=Cc1c(O)c(O)c2ccccc2c1O` [2-hydroxy-3-[(3-hydroxy-1,4-dioxonaphthalen-2-yl)methyl]naphthalene-1,4-dione (Compound 10)], for which the IC50 was 20 µM.

`Oc1ccccc1CNNCC(O)COc1ccccc1` (centres undefined) [2-{[2-(2-hydroxy-3-phenoxypropyl)hydrazin-1-yl]methyl}phenol (Compound 15)] gave an IC50 of 200 µM.

As to `O=c1oc2ccccc2c(O)c1C1c2ccccc2Oc2c1c(=O)oc1ccccc21` (centres undefined), the IC50 is 122 µM.

Regarding `O=C(NNCc1ccccc1O)c1ccccc1O` [2-hydroxy-N'-[(2-hydroxyphenyl)methyl]benzohydrazide (Compound 4)], the IC50 was 0.7 µM.

`O=C(Nc1ncnc2c1ncn2Cc1ccc(F)cc1)c1ccc2cccnc2c1O` [N-{9-[(4-fluorophenyl)methyl]purin-6-yl}-8-hydroxyquinoline-7-carboxamide (Compound 20)]: the IC50 is 11.2 µM.

`O=C(O)C(=O)CC(=O)c1c[nH]c2ccc(Cl)cc12`: half-maximal inhibition (IC50) was put at 0.52 µM.

For the origin of these results see BindingDB's records for doi:10.1111/cbdd.12207 (Nirma University, 2014).
